Experimental data: ChEMBL document CHEMBL1139767, “Dragon method for finding novel tyrosinase inhibitors: Biosilico identification and experimental in vitro assays” (Eur J Med Chem, 2007)

Target: T1, Tyrosinase (Agaricus bisporus, UniProt O42713)
T1 sequence (O42713 whole entry): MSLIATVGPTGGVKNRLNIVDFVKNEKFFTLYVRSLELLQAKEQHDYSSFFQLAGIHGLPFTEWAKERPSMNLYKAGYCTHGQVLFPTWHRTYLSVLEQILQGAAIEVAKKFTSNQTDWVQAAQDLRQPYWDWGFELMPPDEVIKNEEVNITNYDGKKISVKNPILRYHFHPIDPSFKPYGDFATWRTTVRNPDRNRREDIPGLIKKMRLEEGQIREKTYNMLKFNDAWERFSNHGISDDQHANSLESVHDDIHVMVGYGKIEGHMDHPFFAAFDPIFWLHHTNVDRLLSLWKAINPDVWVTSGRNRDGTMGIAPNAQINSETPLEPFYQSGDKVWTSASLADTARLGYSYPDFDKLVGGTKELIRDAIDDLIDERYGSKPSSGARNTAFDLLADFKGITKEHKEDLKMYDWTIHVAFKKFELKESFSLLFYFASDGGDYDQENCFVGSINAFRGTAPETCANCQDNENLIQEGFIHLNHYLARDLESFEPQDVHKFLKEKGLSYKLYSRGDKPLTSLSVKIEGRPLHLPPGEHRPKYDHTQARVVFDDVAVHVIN
Description: Inhibition of mashroom tyrosinase

| SMILES | IC50 |
| --- | --- |
| CC(=O)N1CCC(N2CCCCC2)CC1 | 29.9 µM |
| Cc1ccc(CN2CCC(N3CCCCC3)CC2)cc1 | 1.72 µM |
| O=[N+]([O-])c1ccc(S(=O)(=O)N2CCC(N3CCCCC3)CC2)cc1 | 111 µM |
| c1ccc(OCCCN2CCC(N3CCCCC3)CC2)cc1 | 19.5 µM |
| C1CCN(C2CCNCC2)CC1 [[1,4']Bipiperidinyl] | 111 µM |
